Data set [1] is described as follows: Stability test of crystal forms spread flat in the air under lighting, heating and high humidity (HPLC purity, XRPD). The format is physicochemical. The following applies: for purity as detected by HPLC, 40° C.: heating 40° C.; for purity as detected by HPLC, 40° C. / purity as detected by HPLC, 60° C. / purity as detected by HPLC, RH 75% / purity as detected by HPLC, RH 90% / purity as detected by HPLC, Lighting: spread flat in the air; for purity as detected by HPLC, 60° C.: heating 60° C.; for purity as detected by HPLC, RH 75%: high humidity RH 75%; for purity as detected by HPLC, RH 90%: high humidity RH 90%; for purity as detected by HPLC, Lighting: lighting (4500 Lux). As for the experimental part: The product sample of crystal form I prepared in Example 1 and the product samples of crystal forms A, B, C and D prepared in Examples 12, 13, 14 and 15 were spread flat in the air to test sample stability under conditions of lighting (4500 Lux), heating (40° C., 60° C.), and high humidity (RH 75%, RH 90%). Samplings were carried out on Day 5 and Day 10.

Data set [2] can be described thus: Special stability study of crystal form I (grinding, heating, tableting; XRPD and DSC). The data set is classed as physicochemical. The protocol: 1. Differential Scanning Calorimeter, DSC
Instrument type: Mettler Toledo DSC 1 STAR^e System
Heating rate: 10.0° C./min
Temperature range: 40-300° C.
2. X-Ray Powder Diffraction, XRPD
Instrument type: Bruker D8 Focus X-ray powder diffractometer
Ray: monochromatic Cu-Kα ray (λ=1.5406)
Scanning mode: θ/2θ, Scanning range: 2-40°
Voltage: 40 kV, Electric current: 40 mA
The sample of crystal form I of the compound of formula (I) prepared according to the method of Example 1 was ground, heated and tableted.

Entries after “also recorded” stand apart in the source; their conditions may differ.

In the case of `CONC(=O)Nc1ccc(-n2nc3c(c2CN(C)C)c(=O)n(-c2ccc(OC)nn2)c(=O)n3Cc2c(F)cccc2F)cc1` [Crystal form C, 1-(4-(7-(2,6-Difluorobenzyl)-3-((dimethylamino)methyl)-5-(6-methoxypyridazin-3-yl)-4,6-dioxo-4,5,6,7-tetrahydro-2H-pyrazolo[3,4-d]pyrimidin-2-yl)phenyl)-3-methoxy urea], in data set [1] (Day 0), the “purity as detected by HPLC, 40° C.” value was 99.75%; the “purity as detected by HPLC, 60° C.” value turned out to be 99.75%; the “purity as detected by HPLC, RH 75%” value worked out at 99.75%; the “purity as detected by HPLC, RH 90%” value is 99.75%. The “purity as detected by HPLC, Lighting” value in data set [1] (Day 0) came to 99.75%. In addition, in data set [1] (Day 5), the “purity as detected by HPLC, 40° C.” value was determined as 99.57%; the “purity as detected by HPLC, 60° C.” value was 99.53%; the “purity as detected by HPLC, RH 75%” value is given as 99.51%; the “purity as detected by HPLC, RH 90%” value turned out to be 99.54%. Moreover, in data set [1] (Day 5), the “purity as detected by HPLC, Lighting” value came out at 98.30%. Besides, in data set [1] (Day 10), the “purity as detected by HPLC, 40° C.” value amounted to 99.35%; the “purity as detected by HPLC, 60° C.” value stood at 99.47%; the “purity as detected by HPLC, RH 75%” value was 99.48%; the “purity as detected by HPLC, RH 90%” value turned out to be 99.38%. Besides, the “purity as detected by HPLC, Lighting” value in data set [1] (Day 10) came to 96.83%.
Take `CONC(=O)Nc1ccc(-n2nc3c(c2CN(C)C)c(=O)n(-c2ccc(OC)nn2)c(=O)n3Cc2c(F)cccc2F)cc1` [Crystal form D, 1-(4-(7-(2,6-Difluorobenzyl)-3-((dimethylamino)methyl)-5-(6-methoxypyridazin-3-yl)-4,6-dioxo-4,5,6,7-tetrahydro-2H-pyrazolo[3,4-d]pyrimidin-2-yl)phenyl)-3-methoxy urea]: in data set [1] (Day 0), the “purity as detected by HPLC, 40° C.” value stood at 99.67%; the “purity as detected by HPLC, 60° C.” value is recorded as 99.67%; the “purity as detected by HPLC, RH 75%” value is recorded as 99.67%; the “purity as detected by HPLC, RH 90%” value stood at 99.67%. Further, the “purity as detected by HPLC, Lighting” value in data set [1] (Day 0) was 99.67%. Moreover, in data set [1] (Day 5), the “purity as detected by HPLC, 40° C.” value stood at 99.44%; the “purity as detected by HPLC, 60° C.” value came to 99.48%; the “purity as detected by HPLC, RH 75%” value amounted to 99.57%; the “purity as detected by HPLC, RH 90%” value was 99.57%. In addition, the “purity as detected by HPLC, Lighting” value in data set [1] (Day 5) worked out at 99.43%. In addition, in data set [1] (Day 10), the “purity as detected by HPLC, 40° C.” value worked out at 99.31%; the “purity as detected by HPLC, 60° C.” value worked out at 99.40%; the “purity as detected by HPLC, RH 75%” value came to 99.34%; the “purity as detected by HPLC, RH 90%” value was 99.39%. In addition, in data set [1] (Day 10), the “purity as detected by HPLC, Lighting” value was 99.22%.
In the case of `CONC(=O)Nc1ccc(-n2nc3c(c2CN(C)C)c(=O)n(-c2ccc(OC)nn2)c(=O)n3Cc2c(F)cccc2F)cc1` [Crystal form A, 1-(4-(7-(2,6-Difluorobenzyl)-3-((dimethylamino)methyl)-5-(6-methoxypyridazin-3-yl)-4,6-dioxo-4,5,6,7-tetrahydro-2H-pyrazolo[3,4-d]pyrimidin-2-yl)phenyl)-3-methoxy urea], in data set [1] (Day 0), the “purity as detected by HPLC, 40° C.” value turned out to be 97.86%; the “purity as detected by HPLC, 60° C.” value was determined as 97.86%; the “purity as detected by HPLC, RH 75%” value is 97.86%; the “purity as detected by HPLC, RH 90%” value was determined as 97.86%. Moreover, the “purity as detected by HPLC, Lighting” value in data set [1] (Day 0) came out at 97.86%. Moreover, in data set [1] (Day 5), the “purity as detected by HPLC, 40° C.” value came out at 97.50%; the “purity as detected by HPLC, 60° C.” value stood at 97.62%; the “purity as detected by HPLC, RH 75%” value turned out to be 97.61%; the “purity as detected by HPLC, RH 90%” value is given as 97.59%. Moreover, the “purity as detected by HPLC, Lighting” value in data set [1] (Day 5) is recorded as 97.27%. Also, in data set [1] (Day 10), the “purity as detected by HPLC, 40° C.” value was 97.52%; the “purity as detected by HPLC, 60° C.” value came out at 97.50%; the “purity as detected by HPLC, RH 75%” value was 97.65%; the “purity as detected by HPLC, RH 90%” value is 97.79%. Besides, the “purity as detected by HPLC, Lighting” value in data set [1] (Day 10) was determined as 97.13%.
On to `CONC(=O)Nc1ccc(-n2nc3c(c2CN(C)C)c(=O)n(-c2ccc(OC)nn2)c(=O)n3Cc2c(F)cccc2F)cc1` [Crystal form B, 1-(4-(7-(2,6-Difluorobenzyl)-3-((dimethylamino)methyl)-5-(6-methoxypyridazin-3-yl)-4,6-dioxo-4,5,6,7-tetrahydro-2H-pyrazolo[3,4-d]pyrimidin-2-yl)phenyl)-3-methoxy urea], for which, in data set [1] (Day 0), the “purity as detected by HPLC, 40° C.” value is reported as 99.69%; the “purity as detected by HPLC, 60° C.” value is on record as 99.69%; the “purity as detected by HPLC, RH 75%” value turned out to be 99.69%; the “purity as detected by HPLC, RH 90%” value is listed as 99.69%. Also, the “purity as detected by HPLC, Lighting” value in data set [1] (Day 0) is 99.69%. In addition, in data set [1] (Day 5), the “purity as detected by HPLC, 40° C.” value came out at 99.45%; the “purity as detected by HPLC, 60° C.” value stood at 99.45%; the “purity as detected by HPLC, RH 75%” value was 99.52%; the “purity as detected by HPLC, RH 90%” value was 99.47%. The “purity as detected by HPLC, Lighting” value in data set [1] (Day 5) was 99.39%. For the same compound, in data set [1] (Day 10), the “purity as detected by HPLC, 40° C.” value is on record as 99.03%; the “purity as detected by HPLC, 60° C.” value is reported as 99.34%; the “purity as detected by HPLC, RH 75%” value is on record as 99.34%; the “purity as detected by HPLC, RH 90%” value is given as 99.34%. Besides, the “purity as detected by HPLC, Lighting” value in data set [1] (Day 10) stood at 99.19%.
With `CONC(=O)Nc1ccc(-n2nc3c(c2CN(C)C)c(=O)n(-c2ccc(OC)nn2)c(=O)n3Cc2c(F)cccc2F)cc1` [Crystal form I, 1-(4-(7-(2,6-difluorobenzyl)-3-((dimethylamino)methyl)-5-(6-methoxypyridazin-3-yl)-4,6-dioxo-4,5,6,7-tetrahydro-2H-pyrazolo[3,4-d]pyrimidin-2-yl)phenyl)-3-methoxyurea], the results for the “purity as detected by HPLC, 40° C.” value in data set [1] (Day 0), in data set [1] (Day 5) and in data set [1] (Day 10) were 99.36%, 99.33% and 99.41%, respectively. The “purity as detected by HPLC, 60° C.” value in data set [1] (Day 0) amounted to 99.36%; in data set [1] (Day 5) it was 99.24%; in data set [1] (Day 10), 99.30%. For the same compound, the “purity as detected by HPLC, RH 75%” value stood at 99.36% in data set [1] (Day 0), 99.22% in data set [1] (Day 5) and 99.31% in data set [1] (Day 10). The results for the “purity as detected by HPLC, RH 90%” value in data set [1] (Day 0), in data set [1] (Day 5) and in data set [1] (Day 10) were 99.36%, 99.27% and 99.27%, respectively. The figures for the “purity as detected by HPLC, Lighting” value in data set [1] (Day 0), in data set [1] (Day 5) and in data set [1] (Day 10) were 99.36%, 99.26% and 99.20%, respectively. The “crystal form by XRPD test after exposure” value in data set [1] (lighting, high humidity and high temperature, spread in the air) is given as “not changed; also recorded: unchanged”. For the same compound, the “stability compared with crystal forms A, B, C and D” value in data set [1] (lighting, high humidity and high temperature, decrease of HPLC purity) is on record as “significantly better”. Further, the DSC peak was found to be 166.16 °C in data set [2] (after grinding treatment for 10 minutes), 168.36 °C in data set [2] (after heating treatment for 3 hours at 80° C.) and 168.97 °C in data set [2] (after tableting treatment). For the same compound, in data set [2] (grinding, heating and tableting), the “crystal form during grinding, heating and tableting procedure” value is on record as “not changed”.
